{"source": "patent US8604172B2", "about": "“Humanized antibody compositions and methods for binding lysophosphatidic acid” (Lpath, Inc., priority 2009, dated 2013)", "key": {"[1]": {"system": "IL-6 release in SKOV3 cells", "test": "LPA-induced IL-6 release in SKOV3 cells", "format": "cell-based, human", "details": "1 uM LPA alone", "method": "Anti-LPA antibodies inhibit the LPA-dependant release of human CXCL8/IL-8 in conditioned media of SKOV3 ovarian cells. SKOV3 cells (Lot No 4255558, passage 14) were harvested with 2 ml of 1× Trypsin EDTA (Mediatech Inc, Cat. No 25-053-CV) and resuspended in 8 ml of complete medium (10% FBS, Mediatech Inc. Cat. no 35-011-CV). The cells were centrifuged for 5 min ([…]) and re-suspended in 5 ml of complete medium. Cells were counted in duplicate with 0.4% Trypan blue (10 ul cells plus 90 ul Trypan blue, Invitrogen, Cat. No 15250-061) using a hemocytometer. In a 96-well plate, 1×10^5 cells per well were seeded (final volume 100 ul/well). The cells were allowed to attach and form a confluent monolayer by incubating overnight at 37° C. On the following day, cells were gently washed two times with minimum media (1 mg/ml BSA in McCoy's medium with L-glutamine, Mediatech, Cat. No 10-050-CV). […] The CXCL8/IL-8 levels in each supernatant were measured using the Quantikine human CXCL8/IL-8 ELISA kit according to vendor instructions (R&D Systems, Minneapolis Minn., Cat. No D8000C). The IL-6 levels were measured by ELISA using the Quantikine human IL-6 immunoassay kit (R&D systems, Cat. No. D6050). Data were analyzed by one-way ANOVA followed by Bonferroni's post test and expressed as human IL-8 or human IL-6 fold increase."}, "IL-8 in Caki-1 cells": {"system": "IL-8 in Caki-1 cells", "test": "LPA-induced IL-8 production in Caki-1 cells", "format": "cell-based, human", "details": "18:1 LPA (0.2 mM), non-treated cells, average", "method": "Three anti-LPA mAbs (B3, B7 and B58) were tested for their abilities to reduce in vitro IL-8 production compared to a non-specific antibody (NS). Caki-1 cells were seeded in 96 well plates and grown to confluency. After overnight serum starvation, cells were treated with 18:1 LPA (0.2 mM) with or without anti-LPA mAb B3, B7, B58 or NS (Non-Specific). After 24 h, cultured supernatants of renal cancer cells (Caki-1), treated with or without LPA and in presence of increasing concentrations of the anti-LPA mAbs B3, B7 and B58, were collected and analyzed for IL-8 levels using a commercially available ELISA kit (Human Quantikine Kit, R&D Systems, Minneapolis, Minn.). […] The inhibition of IL-8 release by the anti-LPA mAbs was also observed in other cancerous cell lines such as the pancreatic cell line Panc-1."}, "[2]": {"system": "IL-8 release in SKOV3 cells", "test": "LPA-induced IL-8 release in SKOV3 cells", "format": "cell-based, human", "details": "1 uM LPA alone", "method": "Anti-LPA antibodies inhibit the LPA-dependant release of human CXCL8/IL-8 in conditioned media of SKOV3 ovarian cells. SKOV3 cells (Lot No 4255558, passage 14) were harvested with 2 ml of 1× Trypsin EDTA (Mediatech Inc, Cat. No 25-053-CV) and resuspended in 8 ml of complete medium (10% FBS, Mediatech Inc. Cat. no 35-011-CV). The cells were centrifuged for 5 min ([…]) and re-suspended in 5 ml of complete medium. Cells were counted in duplicate with 0.4% Trypan blue (10 ul cells plus 90 ul Trypan blue, Invitrogen, Cat. No 15250-061) using a hemocytometer. In a 96-well plate, 1×10^5 cells per well were seeded (final volume 100 ul/well). The cells were allowed to attach and form a confluent monolayer by incubating overnight at 37° C. On the following day, cells were gently washed two times with minimum media (1 mg/ml BSA in McCoy's medium with L-glutamine, Mediatech, Cat. No 10-050-CV). The media was adjusted to 1% penicillin/streptomycin (Mediatech, Cat. No 30-002 CI) and 2.2 g/L sodium-bicarbonate (Mediatech, Cat. No 25-035-CI). Next, the cells were serum-starved at 37° C. for exactly 24 h, followed by cytokine stimulation with 1 uM C18:1 LPA (Avanti, Cat. No 857130) dissolved in 1 mg/ml BSA/PBS (Calbiochem, Cat. No 126575) which was pre-incubated in presence or absence of humanized LPA antibody LT3015 (150, 300 or 600 ug/mL) for one hour. Treatments were then added to the cells. After 22 h of cytokine stimulation, the cells were centrifuged for 5 min (13,500 rpm) at 4° C. and the supernatants (cell-conditioned media) were collected. The CXCL8/IL-8 levels in each supernatant were measured using the Quantikine human CXCL8/IL-8 ELISA kit according to vendor instructions (R&D Systems, Minneapolis Minn., Cat. No D8000C). The IL-6 levels were measured by ELISA using the Quantikine human IL-6 immunoassay kit (R&D systems, Cat. No. D6050). Data were analyzed by one-way ANOVA followed by Bonferroni's post test and expressed as human IL-8 or human IL-6 fold increase."}, "SKOV3 cells": {"system": "SKOV3 cells", "test": "Scratch assay, SKOV3 tumor cell migration", "format": "cell-based, human", "details": "17 hr", "method": "SKOV3 cells were plated at 15,000 cells per well in a 96-well plate. The following day the cells were serum starved in minimal media (McCoy's Media 5a, adjusted to contain L-Glutamine, 2.2 g/L Sodium Bicarbonate, 1% penicillin/streptomycin and 1 mg/ml BSA) for 24 hrs. At time 0 cells were scratched with a p200 pipet tip down the center of each well, washed with minimal media and pictures were taken prior to treatment. Cells were then treated with LPA (C18:1) at 0.2 uM, 1.0 uM and 10 uM concentrations which were pre-incubated at 37° C. with […] in the presence or absence of antibody at 150 ug/ml. Positive control (10% FBS treated cells) and antibody alone added to 1 uM LPA, were also tested. Cells were stimulated for 17 hrs at 37° C. in a 5% CO2 incubator. Pictures were taken again 17 hr post-treatment and % wound closure was measured by adjusting pictures to the same size and measuring the width of the scratch at time 0 and time 17 hr with a ruler. Data were analyzed by Student's t-test."}, "SKOV3 tumor": {"system": "SKOV3 tumor", "test": "SKOV3 ovarian tumor progression in nude mice", "format": "in vivo", "details": "Mean ± S.E.", "method": "Human mAb LT3015 reduced ovarian tumor SKOV3 progression and circulating cytokines in biological fluids. Nude mice were engrafted with either 10 mg/kg LT3015, vehicle, or 2 mg/kg paclitaxel (Taxol). After 56 days, mice were sacrificed and the peritoneal cavities were analyzed for tumor burden and ascites fluid accumulation. Tumors were harvested and final tumor weights were determined along with ascites volumes. Data were analyzed by ANOVA and student's t-test analysis. […] Serum and ascites levels of IL-6, IL-8, GM-CSF and VEGF were measured using ELISA kits from R&D systems, Minneapolis Minn."}}, "note": "Marks after values point to notes of the source that are not given here."}
{"compound": "Lysophosphatidic acid [LPA, reference compound]", "values": [{"measurement": "Human IL-6 Fold Increase (approx).", "setting": "[1]", "value": "~29##"}, {"measurement": "increase of IL-8 expression", "setting": "IL-8 in Caki-1 cells", "value": 100, "unit": "%"}, {"measurement": "Human IL-8 Fold Increase (approx).", "setting": "[2]", "value": "~7.1##"}, {"measurement": "Percent wound closure (approx.)", "setting": "SKOV3 cells; 0.2 uM LPA", "value": "~65", "unit": "%"}, {"measurement": "Percent wound closure (approx.)", "setting": "SKOV3 cells; 1.0 uM LPA", "value": "~81", "unit": "%"}, {"measurement": "Percent wound closure (approx.)", "setting": "SKOV3 cells; 10 uM LPA", "value": "~89", "unit": "%"}]}
{"compound": "CC(=O)O[C@H]1C(=O)[C@@]2(C)[C@H]([C@H](OC(=O)c3ccccc3)[C@]3(O)C[C@H](OC(=O)[C@H](O)[C@@H](NC(=O)c4ccccc4)c4ccccc4)C(C)=C1C3(C)C)[C@]1(OC(C)=O)CO[C@@H]1C[C@@H]2O", "note": "[Taxol, paclitaxel, reference compound]", "values": [{"measurement": "Ascites volume", "setting": "SKOV3 tumor", "value": "0.2 ± 0.0", "unit": "mL"}]}
